According to patent publication US8178506B2, “Oligomeric compounds and compositions for use in modulation of small non-coding RNAs” (Regulus Therapeutics Inc., priority 2003, dated 2012):
Values joined by “and” are separate entries in the source; they are usually repeats but may differ in a detail not shown here. Equal entries are not always repeated. In the oligonucleotide strings, read from the 5' end, every base follows the letter of its sugar. An asterisk marks phosphorothioate; unmarked linkages are phosphodiester. Other units and linkages are bracketed, terminal groups are in braces. A string of capitals states the bases alone. e = 2'-O-(2-methoxyethyl) (MOE); [5mC] = 5-methylcytosine; d = 2'-deoxy (DNA)

Legend:
PEPCK-c = PEPCK-c mRNA expression in HepG2 cells; assay type: cell-based, human; details: for PEPCKc mRNA expression: Experiment 2, insulin treated: HepG2 cells transfected with oligomeric compound, 1 nM insulin for four hours, UTC + 1 nM insulin = 100; for PEPCKc mRNA: four hours, UTC = 100
HeLa cells = assay: Cell cycle assay in HeLa cells; assay type: cell-based, human; details: HeLa cells; for % cells in cell cycle phase: G1 / % cells in cell cycle phase: G2/M / % cells in cell cycle phase: S / % cells in cell cycle phase: aneuploid / % cells in cell cycle phase: subG1: 48 hours after treatment, relative to untreated control (UTC=100)
[1] = HepG2 cells, Experiment 1, basal (no insulin)
[2] = Experiment 3, basal (no insulin), HepG2 cells, 48 hours post-transfection
[3] = Experiment 4, insulin-sensitization: HepG2 cells treated with 1 nM insulin for four hours, 48 h post-transfection, mRNA by real-time PCR
[4] = 150 nM oligomeric compound, 24 hours, relative to untreated control (UTC = 100)
[5] = Experiment 1, basal (no insulin), HepG2, 100 nM oligomeric compound
[6] = Experiment 2, 1 nM insulin treated, HepG2, 100 nM oligomeric compound
[7] = 150 nM, 48 hours, relative to untreated control

Substance | PEPCKc mRNA (PEPCK-c; [1]) | % cells aneuploid (HeLa cells; [4]) [%] | % cells in cell cycle phase G1 (HeLa cells; [4]) | % cells in cell cycle phase G2/M (HeLa cells; [4]) | % cells in cell cycle phase S (HeLa cells; [4]) | % cells in cell cycle phase subG1 (HeLa cells; [4]) [%] | % cells in cell cycle phase: G1 (HeLa cells; 150 nM oligomeric compound) | % cells in cell cycle phase: G2/M (HeLa cells; 150 nM oligomeric compound) | % cells in cell cycle phase: S (HeLa cells; 150 nM oligomeric compound) | % cells in cell cycle phase: aneuploid (HeLa cells; 150 nM oligomeric compound) | % cells in cell cycle phase: subG1 (HeLa cells; 150 nM oligomeric compound) [%] | further results
327920 (antisense eG*eA*eG*eA*e[5mC]*e[5mC]*e[5mC]*eA*eG*eT*eA*eG*e[5mC]*e[5mC]*eA*eG*eA*eT*eG*eT*eA*eG*e[5mC]*eT) [compound 327920] | 52 | – | – | – | – | – | – | – | – | – | – | PEPCKc mRNA expression (PEPCK-c): 59
328691 (e[5mC]*e[5mC]*e[5mC]*e[5mC]*eA*dT*d[5mC]*dT*dT*dA*dG*d[5mC]*dA*dT*d[5mC]*eT*eA*eA*eG*eG) [compound 328691] | – | – | – | – | – | – | – | – | – | – | – | PEPCK-c (% UTC) (PEPCK-c; [2]): 108 % UTC; PEPCK-c (% UTC) (PEPCK-c; [3]): 97 % UTC
341805 (antisense ACCCTTATCAGTTCTCCGTCCA; all 2'-MOE, all phosphorothioate, methylation of C not given here) [compound 341805] | 40 | – | – | – | – | – | – | – | – | – | – | –
327899 (antisense e[5mC]*eA*eG*eT*eG*eA*eA*eT*eT*e[5mC]*eT*eA*e[5mC]*e[5mC]*eA*eG*eT*eG*e[5mC]*e[5mC]*eA*eT*eA) [compound 327899] | 42 | – | – | – | – | – | – | – | – | – | – | –
327923 (antisense eG*eA*eA*eA*eG*eA*eG*eA*e[5mC]*e[5mC]*eG*eG*eT*eT*e[5mC]*eA*e[5mC]*eT*eG*eT*eG*eA) [compound 327923] | 83 | – | – | – | – | – | – | – | – | – | – | PEPCKc mRNA expression (PEPCK-c): 125
328114 (antisense eA*eA*eT*e[5mC]*eT*e[5mC]*eA*eT*eT*eT*eT*e[5mC]*eA*eT*eA*e[5mC]*eT*eT*eG*e[5mC]*eA) [compound 328114] | – | – | – | – | – | – | – | – | – | – | – | PEPCKc mRNA expression (PEPCK-c): 41
328125 (antisense eT*eA*eT*eG*eA*eA*eA*eT*eG*e[5mC]*e[5mC]*eA*eG*eA*eG*e[5mC]*eT*eG*e[5mC]*e[5mC]*eA) [compound 328125] | – | – | – | – | – | – | – | – | – | – | – | PEPCKc mRNA expression (PEPCK-c): 77
327900 (antisense e[5mC]*eT*eG*e[5mC]*e[5mC]*eT*eG*eT*e[5mC]*eT*eG*eT*eG*e[5mC]*e[5mC]*eT*eG*e[5mC]*eT*eG*eT) [compound 327900] | 88 | – | – | – | – | – | – | – | – | – | – | –
328685 (e[5mC]*eG*eG*e[5mC]*e[5mC]*dG*dG*dA*dG*d[5mC]*d[5mC]*dA*dT*dA*dG*eA*e[5mC]*eT*e[5mC]*eG; antisense) [compound 328685] | – | – | – | – | – | – | – | – | – | – | – | PEPCK-c (% UTC) (PEPCK-c; [2]): 219 % UTC; PEPCK-c (% UTC) (PEPCK-c; [3]): 184 % UTC
327893 (antisense eA*eA*e[5mC]*e[5mC]*eA*e[5mC]*eA*e[5mC]*eA*eA*e[5mC]*e[5mC]*eT*eA*e[5mC]*eT*eA*e[5mC]*e[5mC]*eT*e[5mC]*eA) [compound 327893] | 81 | – | – | – | – | – | – | – | – | – | – | –
328119 (antisense eA*eA*eT*eA*eA*e[5mC]*eA*e[5mC]*eA*e[5mC]*eA*eT*e[5mC]*e[5mC]*eA*e[5mC]*eT*eT*eT*eA*eA) [compound 328119] | – | 83 | 100% | 112% | 94% | 75 | 75% | 124% | 145% | 81% | 767 | –
327918 (antisense e[5mC]*eT*eA*eG*eT*eA*e[5mC]*eA*eT*e[5mC]*eA*eT*e[5mC]*eT*eA*eT*eA*e[5mC]*eT*eG*eT*eA) [compound 327918] | 81 | – | – | – | – | – | – | – | – | – | – | PEPCKc mRNA expression (PEPCK-c): 107
327956 (antisense e[5mC]*eA*e[5mC]*eA*eG*eT*eT*eG*e[5mC]*e[5mC]*eA*eG*e[5mC]*eT*eG*eA*eG*eA*eT*eT*eA) [compound 327956] | – | 61 | 124% | 120% | 68% | 120 | 91% | 121% | 106% | 110% | 184 | –
327890 (antisense eA*eG*e[5mC]*eA*e[5mC]*eA*eA*eA*e[5mC]*eT*eA*e[5mC]*eT*eA*e[5mC]*e[5mC]*eT*e[5mC]*eA) [compound 327890] | – | – | – | – | – | – | – | – | – | – | – | PEPCK-c (% UTC) (PEPCK-c; [5]): 85 % UTC; PEPCK-c (% UTC) (PEPCK-c; [6]): 113 % UTC
327895 (antisense eA*e[5mC]*eA*eA*eA*e[5mC]*eA*e[5mC]*e[5mC]*eA*eT*eT*eG*eT*e[5mC]*eA*e[5mC]*eA*e[5mC]*eT*e[5mC]*e[5mC]*eA) [compound 327895] | 71 | – | – | – | – | – | – | – | – | – | – | –
341800 (antisense AAGCCCAAAAGGAGAAUUCUUUG; all 2'-MOE, all phosphorothioate, methylation of C and T or U not given here) [compound 341800] | 71 | – | – | – | – | – | – | – | – | – | – | –
327886 (antisense e[5mC]*eG*e[5mC]*eG*eT*eA*e[5mC]*e[5mC]*eA*eA*eA*eA*eG*eT*eA*eA*eT*eA*eA*eT*eG) [compound 327886] | 61 | – | – | – | – | – | – | – | – | – | – | –
327925 (antisense eT*eA*eG*e[5mC]*eT*eG*eG*eT*eT*eG*eA*eA*eG*eG*eG*eG*eA*e[5mC]*e[5mC]*eA*eA) [compound 327925] | – | – | – | – | – | – | – | – | – | – | – | PEPCK-c (% UTC) (PEPCK-c; [5]): 145 % UTC; PEPCK-c (% UTC) (PEPCK-c; [6]): 182 % UTC
327896 (antisense eA*e[5mC]*eA*eG*eT*eT*e[5mC]*eT*eT*e[5mC]*eA*eA*e[5mC]*eT*eG*eG*e[5mC]*eA*eG*e[5mC]*eT*eT) [compound 327896] | – | 65 | 83% | 128% | 103% | 121 | 55% | 194% | 140% | 66% | 886 | % cells in cell cycle phase G1 (HeLa cells; [7]): 103%; % cells in cell cycle phase G2/M (HeLa cells; [7]): 106%; % cells in cell cycle phase S (HeLa cells; [7]): 94%; % cells in cell cycle phase aneuploid (HeLa cells; [7]): 144%; % cells in cell cycle phase subG1 (HeLa cells; [7]): 95%
327906 (antisense eT*e[5mC]*eA*eT*eA*eG*e[5mC]*e[5mC]*e[5mC]*eT*eG*eT*eA*e[5mC]*eA*eA*eT*eG*e[5mC]*eT*eG*e[5mC]*eT) [compound 327906] | – | 65 | 153% | 107% | 47% | 228 | 100% | 103% | 98% | 83% | 57 | –
327904 (antisense eA*e[5mC]*eT*e[5mC]*eA*e[5mC]*e[5mC]*eG*eA*e[5mC]*eA*eG*e[5mC]*eG*eT*eT*eG*eA*eA*eT*eG*eT*eT) [compound 327904] | – | 89 | 99% | 99% | 102% | 114 | 87% | 114% | 126% | 80% | 116 | –
327907 (antisense eA*eG*e[5mC]*e[5mC]*eT*eA*eT*e[5mC]*e[5mC]*eT*eG*eG*eA*eT*eT*eA*e[5mC]*eT*eT*eG*eA*eA) [compound 327907] | – | 75 | 119% | 111% | 77% | 224 | 92% | 115% | 111% | 94% | 116 | –
328362 (eT*eG*eT*eG*eT*dT*dT*dT*d[5mC]*dT*dG*dA*d[5mC]*dT*d[5mC]*eA*eG*eT*e[5mC]*eA) [compound 328362] | – | 66 | 101% | 126% | 87% | 114 | 96% | 108% | 104% | 97% | 87 | –
328136 (eA*eA*e[5mC]*eT*eA*e[5mC]*eT*eT*e[5mC]*e[5mC]*eA*eG*eA*eG*e[5mC]*eA*eG*eG*eT*eG*eA; anti-miR) [compound 328136] | – | 51 | 125% | 88% | 81% | 330 | 83% | 113% | 133% | 85% | 140 | –
328382 (e[5mC]*eA*eG*eA*e[5mC]*dT*d[5mC]*d[5mC]*d[5mC]*dA*dA*d[5mC]*dT*dG*dA*e[5mC]*e[5mC]*eA*eG*eA) [compound 328382] | – | – | 118% and 102% | 116% and 144% | 76% and 80% | – | 102% and 83% | 103% and 120% | 92% and 122% | 109% and 133% | – | –
328111 (antisense eT*e[5mC]*e[5mC]*eG*eA*eG*eT*e[5mC]*eG*eG*eA*eG*eG*eA*eG*eG*eA*eG*eG*eA*eA) [compound 328111] | – | 50 | 127% | 99% | 75% | 62 | 84% | 119% | 126% | 90% | 371 | –
